According to US11865132B2, “Nucleoside derivatives and methods of use thereof” (Ascletis BioScience Co., Ltd., priority 2021, dated 2024):

Assay: Permeability of compounds in Caco-2 assay (bi-directional transport)
Assay type: in vitro ADME
Details: human, pH 7.4; for Papp A→B at 2 h, 2 μM / Papp B→A at 2 h, 2 μM: Caco-2 monolayer, pH 7.40; for Papp A→B at 2 h, 2 μM: A to B; for Papp B→A at 2 h, 2 μM: B to A
Procedure: Caco-2 cells purchased from ATCC were seeded onto […] (PET) in 96-well Corning Insert plates at 1×10^5 cells/cm2, and refreshed medium every 4˜5 days until to the 21st to 28th day for confluent cell monolayer formation. The transport buffer in the study was HBSS with 10.0 mM HEPES at pH 7.40±0.05. Test compound was tested at 2.00 μM bi-directionally in duplicate. Digoxin was tested at 10.0 μM bi-directionally in duplicate, while nadolol and metoprolol were tested at 2.00 μM in A to B direction in duplicate. Final DMSO concentration was adjusted to less than 1%. The plate was incubated for 2 hours in CO2 incubator at 37±1° C., with 5% CO2 at saturated humidity without shaking. […] For nadolol and metoprolol, 200 μL supernatant solution was diluted with 600 μL ultra-pure water for LC-MS/MS analysis. For digoxin and test compounds, 200 μL supernatant solution was diluted with 200 μL ultra-pure water for LC-MS/MS analysis Concentrations of test and control compounds in starting solution, donor solution, and receiver solution were quantified by LC-MS/MS methodologies, using peak area ratio of analyte/internal standard. After transport assay, lucifer yellow rejection assay was applied to determine the Caco-2 cell monolayer integrity. The apparent permeability coefficient Papp (cm/s) was calculated using the equation: Papp=(dCr/dt)×Vr/(A×C0) Where dCr/dt is the cumulative concentration of compound in the receiver chamber as a function of time (μM/s); Vr is the solution volume in the receiver chamber (0.075 mL on the apical side, 0.25 mL on the basolateral side); A is the surface area for the transport, i.e. 0.0804 cm2 for the area of the monolayer, CO is the initial concentration in the donor chamber (μM).

In the case of `CC(C)C(=O)OC[C@H]1O[C@@H](n2ccc(NO)nc2=O)[C@@H]2OC(=O)O[C@@H]21` [Compound 1, ((3aR,4R,6R,6aR)-6-((Z)-4-(hydroxyimino)-2-oxo-3,4-dihydropyrimidin-1(2H)-yl)-2-oxotetrahydrofuro[3,4-d][1,3]dioxol-4-yl)methyl isobutyrate], the Papp at 2 h, 2 μM (Caco-2, binning criteria Low/Moderate/High, read-out: Papp (permeability bin)) is reported as 2 to 20 ×10⁻⁶ cm/s, the Papp A→B at 2 h, 2 μM is reported as 0.565 ×10⁻⁶ cm/s and the Papp B→A at 2 h, 2 μM is reported as 2.04 ×10⁻⁶ cm/s. It also gave an efflux ratio at 2 h, 2 μM (Papp(BA)/Papp(AB), Caco-2) of 3.61.

`CC(C)C(=O)OC[C@H]1O[C@@H](n2ccc(NO)nc2=O)[C@H](O)[C@@H]1O` [molnupiravir, reference compound] gave a Papp A→B at 2 h, 2 μM of less than 0.293 ×10⁻⁶ cm/s and a Papp B→A at 2 h, 2 μM of 0.527 ×10⁻⁶ cm/s.
